In PubChem BioAssay AID1259411 (Chemical Carcinogenesis Research Information System (CCRIS), 2018):
The source made the active and inactive calls. No rule for the calls is given here.

Tested on: rodent carcinogenicity bioassays, tumor incidence
Experiment: CCRIS carcinogenicity studies
Summary of the method: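 NCI-built, expert-reviewed records of carcinogenicity and related test outcomes (mutagenicity, tumor promotion/inhibition) compiled from published and report sources, historical span 1985-2011, not updated.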

For `Nc1ccc(N(CCO)CCO)cc1`, the carcinogen call (Species: RAT, Strain/Sex: F344/FEMALE, Route: ORAL, Dose: 0, 300, 1000, 3000 PPM IN DIET FOR 104 WK (STUDY DURATION: 104 WK), Dose: 0, 300, 1000, 3000 PPM IN DIET FOR 104 WK (STUDY DURATION: 104 WK)) was “inactive; negative” and the carcinogen call (Species: RAT, Strain/Sex: F344/MALE, Route: ORAL, Dose: 0, 300, 1000, 3000 PPM IN DIET FOR 104 WK (STUDY DURATION: 104 WK), Dose: 0, 300, 1000, 3000 PPM IN DIET FOR 104 WK (STUDY DURATION: 104 WK)) was “inactive; negative”.

For `Nc1c(Cl)c(Cl)nc(C(=O)O)c1Cl`, the carcinogen call (Species: MOUSE, Strain/Sex: B6C3F1/FEMALE, Route: ORAL, Dose: 0, 2531, 5062 PPM IN DIET FOR 80 WK (STUDY DURATION: 90 WK), Dose: 0, 2531, 5062 PPM IN DIET FOR 80 WK (STUDY DURATION: 90 WK)) was “inactive; negative”, the carcinogen call (Species: MOUSE, Strain/Sex: B6C3F1/MALE, Route: ORAL, Dose: 0, 2531, 5062 PPM IN DIET FOR 80 WK (STUDY DURATION: 90 WK), Dose: 0, 2531, 5062 PPM IN DIET FOR 80 WK (STUDY DURATION: 90 WK)) was “inactive; negative” and the carcinogen call (Species: RAT, Strain/Sex: F344/FEMALE, Route: ORAL, Dose: 0, 20, 60, 200 MG/KG/D OF TECHNICAL GRADE PICLORAM IN FEED FOR 2 YR (STUDY DURATION: 2 YR), Dose: 0, 20, 60, 200 MG/KG/D OF TECHNICAL GRADE PICLORAM IN FEED FOR 2 YR (STUDY DURATION: 2 YR)) was “inactive; negative”. The carcinogen call (Species: RAT, Strain/Sex: F344/MALE, Route: ORAL, Dose: 0, 20, 60, 200 MG/KG/D OF TECHNICAL GRADE PICLORAM IN FEED FOR 2 YR (STUDY DURATION: 2 YR), Dose: 0, 20, 60, 200 MG/KG/D OF TECHNICAL GRADE PICLORAM IN FEED FOR 2 YR (STUDY DURATION: 2 YR)) was “inactive; negative”, the carcinogen call (Species: RAT, Strain/Sex: OSBORNE-MENDEL/FEMALE, Route: ORAL, Dose: 0, 7437, 14875 PPM IN DIET FOR 80 WK (STUDY DURATION: 113 WK), Dose: 0, 7437, 14875 PPM IN DIET FOR 80 WK (STUDY DURATION: 113 WK), Tumor Site: Type of Lesion: LIVER: NEOPLASTIC NODULE) was “equivocal” and the carcinogen call (Species: RAT, Strain/Sex: OSBORNE-MENDEL/MALE, Route: ORAL, Dose: 0, 7437, 14875 PPM IN DIET FOR 80 WK (STUDY DURATION: 113 WK), Dose: 0, 7437, 14875 PPM IN DIET FOR 80 WK (STUDY DURATION: 113 WK)) was “inactive; negative”.

With `O/N=c1\ccn(O)c2ccccc12` the carcinogen call (Species: MOUSE, Strain/Sex: DDD/FEMALE, Route: SUBCUTANEOUS, Dose: 53 NMOL IN 0.1 ML OLIVE OIL WITHIN 24 HR AFTER BIRTH (STUDY DURATION: 400 D), Tumor Site: Type of Lesion: LUNG: ADENOMA, INJECTION SITE: SARCOMA, HEMATOPOIETIC SYSTEM: LEUKEMIA OR LYMPHOSARCOMA, Tumor Site: Type of Lesion: LUNG: ADENOMA, INJECTION SITE: SARCOMA, HEMATOPOIETIC SYSTEM: LEUKEMIA OR LYMPHOSARCOMA) was “active; positive” and the carcinogen call (Species: RAT, Strain/Sex: BUFFALO/FEMALE, Route: GAVAGE, Dose: 1 MG/0.1 ML OR 2 MG/0.2 ML IN 60% ETHANOL SOLUTION 1/3 WK (TOTAL DOSE: 30 MG) (STUDY DURATION: 610 D), Tumor Site: Type of Lesion: GLANDULAR STOMACH: MUCOSAL CARCINOMA, MAMMARY GLAND: TUMOR, THYMUS GLAND: THYMOMA, Tumor Site: Type of Lesion: GLANDULAR STOMACH: MUCOSAL CARCINOMA, MAMMARY GLAND: TUMOR, THYMUS GLAND: THYMOMA) was “active; positive”.

With `Cc1ccc2cc3c(ccc4ccccc43)c3c2c1CC3O` (centres undefined) the carcinogen call (Species: RAT, Strain/Sex: SPRAGUE-DAWLEY/FEMALE, Route: SUBCUTANEOUS, Dose: 0, 0.2 UMOL IN 0.1 ML SESAME OIL:DMSO (9:1) 3/WK FOR 20 DOSES (STUDY DURATION: 52 WK), Tumor Site: Type of Lesion: INJECTION SITE: SARCOMA) was “active; positive”.

For `C[C@]12C/C(=C/O)C(=O)C[C@@H]1CC[C@@H]1[C@@H]2CC[C@@]2(C)[C@H]1CC[C@]2(C)O`, the carcinogen call (Species: HUMAN, Route: ORAL, Tumor Site: Type of Lesion: LIVER) was “active; positive”, the carcinogen call (Species: RAT, Strain/Sex: F344/N/FEMALE, Route: GAVAGE, Dose: 0, 3, 30, 100 MG/KG IN 0.5% METHYLCELLULOSE FOR 104 WK (STUDY DURATION: 104 WK), Dose: 0, 3, 30, 100 MG/KG IN 0.5% METHYLCELLULOSE FOR 104 WK (STUDY DURATION: 104 WK), Tumor Site: Type of Lesion: LIVER: HEPATOCELLULAR ADENOMA, HEPATOCELLULAR ADENOMA OR CARCINOMA, LUNG: ALVEOLAR/BRONCHIOLAR ADENOMA, ALVEOLAR/BRONCHI) was “active; positive” and the carcinogen call (Species: RAT, Strain/Sex: F344/N/MALE, Route: GAVAGE, Dose: 0, 3, 30, 150 MG/KG IN 0.5% METHYLCELLULOSE FOR 104 WK (STUDY DURATION: 104 WK), Dose: 0, 3, 30, 150 MG/KG IN 0.5% METHYLCELLULOSE FOR 104 WK (STUDY DURATION: 104 WK), Tumor Site: Type of Lesion: SKIN (SUBCUTANEOUS TISSUE): FIBROMA, FIBROMA OR FIBROSARCOMA, ADRENAL GLAND: BENIGN PHEOCHROMOCYTOMA, BENIGN PHEOCHROMOC) was “equivocal”.
